From paper PMC12064818, “A general assay platform to study protein pharmacology using ligand-dependent structural dynamics” (Nature Communications, 2025)

How the values were obtained:
[1] = target: FLuc-C-NLuc (firefly luciferase) (Photinus pyralis, UniProt P08659, form not given/L550V); experiment: SDR assay, FLuc-C-NLuc; conditions: SDR, Log [PTC124]
[2] = target: FLuc-C-HiBiT (firefly luciferase) (Photinus pyralis, UniProt P08659, form not given/L550V); experiment: SDR assay, FLuc-C-HiBiT; conditions: for SDR assay statistics Ave RLU / SDR assay statistics S:B / SDR assay statistics S:N / SDR assay statistics Z’: 32.8 µM ligand; for 10 nM FLuc-C-HiBiT + 10 mM ATP, Mean / 10 nM FLuc-C-HiBiT No ATP, Mean: Log [PTC124]
[3] = FLuc-C-HiBiT (10 nM) + 10 mM ATP

FLuc-C-NLuc (firefly luciferase), sequence (P08659 2-550 L550V, form open): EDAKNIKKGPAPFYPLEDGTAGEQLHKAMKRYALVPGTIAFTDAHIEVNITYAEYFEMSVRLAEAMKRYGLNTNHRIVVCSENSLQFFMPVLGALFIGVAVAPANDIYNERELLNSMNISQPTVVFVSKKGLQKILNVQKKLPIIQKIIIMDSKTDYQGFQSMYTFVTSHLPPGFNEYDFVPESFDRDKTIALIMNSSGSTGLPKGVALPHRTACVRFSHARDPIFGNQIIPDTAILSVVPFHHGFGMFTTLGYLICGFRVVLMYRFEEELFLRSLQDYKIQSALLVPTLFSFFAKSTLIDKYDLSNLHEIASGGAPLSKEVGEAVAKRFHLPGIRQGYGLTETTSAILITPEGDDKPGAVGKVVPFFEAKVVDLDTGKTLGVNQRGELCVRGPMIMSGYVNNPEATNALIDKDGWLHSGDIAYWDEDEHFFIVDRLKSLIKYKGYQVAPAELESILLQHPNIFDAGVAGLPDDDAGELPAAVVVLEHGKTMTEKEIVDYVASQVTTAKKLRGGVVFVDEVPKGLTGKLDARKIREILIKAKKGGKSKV
FLuc-C-HiBiT (firefly luciferase), sequence (P08659 2-550 L550V, form open): as above

SMILES: O=C(O)c1cccc(-c2noc(-c3ccccc3F)n2)c1 [PTC124, reference compound]
- 1 nM FLuc-C-NLuc + 10 mM ATP, Mean ([1]; M -8.30): 10339.6 RLU
- 1 nM FLuc-C-NLuc No ATP, Mean ([1]; M -8.30): 6783.7 RLU
- 1 nM FLuc-C-NLuc + 10 mM ATP, Mean ([1]; M -8.78): 10244.6 RLU
- 1 nM FLuc-C-NLuc No ATP, Mean ([1]; M -8.78): 6799.2 RLU
- 1 nM FLuc-C-NLuc + 10 mM ATP, Mean ([1]; M -9.25): 10011.8 RLU
- 1 nM FLuc-C-NLuc No ATP, Mean ([1]; M -9.25): 6787.5 RLU
- 1 nM FLuc-C-NLuc + 10 mM ATP, Mean ([1]; M -9.73): 9047.0 RLU
- 1 nM FLuc-C-NLuc No ATP, Mean ([1]; M -9.73): 6823.9 RLU
- 1 nM FLuc-C-NLuc + 10 mM ATP, Mean ([1]; M -10.21): 8062.7 RLU
- 1 nM FLuc-C-NLuc No ATP, Mean ([1]; M -10.21): 6886.1 RLU
- 1 nM FLuc-C-NLuc + 10 mM ATP, Mean ([1]; M -10.69): 7360.6 RLU
- 1 nM FLuc-C-NLuc No ATP, Mean ([1]; M -10.69): 6890.0 RLU
- 1 nM FLuc-C-NLuc + 10 mM ATP, Mean ([1]; M -11.16): 7002.6 RLU
- 1 nM FLuc-C-NLuc No ATP, Mean ([1]; M -11.16): 6849.1 RLU
- 1 nM FLuc-C-NLuc + 10 mM ATP, Mean ([1]; M -11.64): 6913.7 RLU
- 1 nM FLuc-C-NLuc No ATP, Mean ([1]; M -11.64): 6857.9 RLU
- pSDR50, FLuc-C-HiBiT (10 nM) ([2]; 0 μM ATP): 5.73 ± 0.13
- pSDR50, FLuc-C-HiBiT (10 nM) ([2]; 10 μM ATP): 8.30 ± 0.07
- SDR assay statistics Ave RLU [2, 3]: 11178.8 RLU
- SDR assay statistics S:B [2, 3]: 6.5
- SDR assay statistics S:N [2, 3]: 12.2
- SDR assay statistics Z’ [2, 3]: 0.693
- SDR assay statistics Ave RLU ([2]; FLuc-C-HiBiT (10 nM) No ATP): 6229.4 RLU
- SDR assay statistics S:B ([2]; FLuc-C-HiBiT (10 nM) No ATP): 5.1
- SDR assay statistics S:N ([2]; FLuc-C-HiBiT (10 nM) No ATP): 7.5
- SDR assay statistics Z’ ([2]; FLuc-C-HiBiT (10 nM) No ATP): 0.503
- 10 nM FLuc-C-HiBiT + 10 mM ATP, Mean ([2]; M (SDR) -4.48): 21802.2 RLU
- 10 nM FLuc-C-HiBiT No ATP, Mean ([2]; M (SDR) -4.48): 17458.7 RLU
- 10 nM FLuc-C-HiBiT + 10 mM ATP, Mean ([2]; M (SDR) -4.96): 22284.7 RLU
- 10 nM FLuc-C-HiBiT No ATP, Mean ([2]; M (SDR) -4.96): 16769.9 RLU
- 10 nM FLuc-C-HiBiT + 10 mM ATP, Mean ([2]; M (SDR) -5.44): 22342.5 RLU
- 10 nM FLuc-C-HiBiT No ATP, Mean ([2]; M (SDR) -5.44): 16051.7 RLU
- 10 nM FLuc-C-HiBiT + 10 mM ATP, Mean ([2]; M (SDR) -5.91): 22563.9 RLU
- 10 nM FLuc-C-HiBiT No ATP, Mean ([2]; M (SDR) -5.91): 15076.6 RLU
- 10 nM FLuc-C-HiBiT + 10 mM ATP, Mean ([2]; M (SDR) -6.39): 22424.3 RLU
- 10 nM FLuc-C-HiBiT No ATP, Mean ([2]; M (SDR) -6.39): 13877.2 RLU
- 10 nM FLuc-C-HiBiT + 10 mM ATP, Mean ([2]; M (SDR) -6.87): 22543.4 RLU
- 10 nM FLuc-C-HiBiT No ATP, Mean ([2]; M (SDR) -6.87): 13237.3 RLU
- 10 nM FLuc-C-HiBiT + 10 mM ATP, Mean ([2]; M (SDR) -7.35): 21860.7 RLU
- 10 nM FLuc-C-HiBiT No ATP, Mean ([2]; M (SDR) -7.35): 13241.3 RLU
- 10 nM FLuc-C-HiBiT + 10 mM ATP, Mean ([2]; M (SDR) -7.82): 20621.1 RLU
- 10 nM FLuc-C-HiBiT No ATP, Mean ([2]; M (SDR) -7.82): 13270.4 RLU
- 10 nM FLuc-C-HiBiT + 10 mM ATP, Mean ([2]; M (SDR) -8.30): 18655.3 RLU
- 10 nM FLuc-C-HiBiT No ATP, Mean ([2]; M (SDR) -8.30): 13170.2 RLU
- 10 nM FLuc-C-HiBiT + 10 mM ATP, Mean ([2]; M (SDR) -8.78): 16941.8 RLU
- 10 nM FLuc-C-HiBiT No ATP, Mean ([2]; M (SDR) -8.78): 13237.7 RLU
- 10 nM FLuc-C-HiBiT + 10 mM ATP, Mean ([2]; M (SDR) -9.25): 15920.6 RLU
- 10 nM FLuc-C-HiBiT No ATP, Mean ([2]; M (SDR) -9.25): 13300.5 RLU
- 10 nM FLuc-C-HiBiT + 10 mM ATP, Mean ([2]; M (SDR) -9.73): 15410.2 RLU
- 10 nM FLuc-C-HiBiT No ATP, Mean ([2]; M (SDR) -9.73): 13254.2 RLU
- 10 nM FLuc-C-HiBiT + 10 mM ATP, Mean ([2]; M (SDR) -10.21): 15302.7 RLU
- 10 nM FLuc-C-HiBiT No ATP, Mean ([2]; M (SDR) -10.21): 12964.2 RLU
- 10 nM FLuc-C-HiBiT + 10 mM ATP, Mean ([2]; M (SDR) -10.69): 15229.5 RLU
- 10 nM FLuc-C-HiBiT No ATP, Mean ([2]; M (SDR) -10.69): 13111.1 RLU
- 10 nM FLuc-C-HiBiT + 10 mM ATP, Mean ([2]; M (SDR) -11.16): 15146.3 RLU
- 10 nM FLuc-C-HiBiT No ATP, Mean ([2]; M (SDR) -11.16): 13296.1 RLU
- 10 nM FLuc-C-HiBiT + 10 mM ATP, Mean ([2]; M (SDR) -11.64): 14993.9 RLU
- 10 nM FLuc-C-HiBiT No ATP, Mean ([2]; M (SDR) -11.64): 13163.6 RLU
